This assay has as its system Egln1^Tie2Cre mice. The assay is described as follows: C76 treatment of Egln1Tie2Cre mice: LV hypertrophy and cardiac fibrosis. Particulars: 3 week-old Egln1^Tie2Cre mice treated for 11 weeks. It counts as in vivo. As to the method: Egln1^Tie2Cre mice, Egln1/Hif1a^Tie2Cre and Egln1/Hif2a^Tie2Cre double knockout mice were generated as described previously^16. Egln1^EndoCreERT2 mice were generated by crossing Egln1 floxed mice with EndoSCL-CreERT2 transgenic mice expressing the tamoxifen-inducible Cre recombinase under the control of the 5′ endothelial enhancer of the stem cell leukemia locus^23. At 8 weeks of age, Egln1^EndoCreERT2 and Egln1^f/f mice were treated with 2 mg tamoxifen intraperitoneally for 5 days to induced Egln1 deletion only in ECs. Mice were scarified at the age of ˜9 months. Both male and female mice were used in these studies. The use of animals was in compliance with the guidelines of the Animal Care and Use Committee of the Northwestern University and of the University of Arizona.
For Wheat Germ Agglutinin (WGA) staining, WGA conjugated with FITC or WGA conjugated with Alexa 647 were stained with cryosectioned slides at room temple for 10 mins.
For histological assessment, hearts were harvested and washed with PBS, followed by fixation in 4% formalin and dehydrated in 70% ethanol. After paraffin processing, the tissues were cut into semi-thin […] thick sections. Sections were stained with H & E staining or Masson's trichrome kit as a service of charge at Core Facility.
To assess the therapeutic potential of HIF-2α inhibition for cardiomyopathy, we treated 3 week-old Egln1^Tie2Cre mice with the HIF-2α translation inhibitor C76^31,35 for 11 weeks.

Consider `COC(=O)c1sccc1N/N=C(\C#N)S(C)(=O)=O` [C76, methyl 3-[(2E)-2-[cyano(methylsulfonyl)methylidene]hydrazinyl]thiophene-2-carboxylate], for which the “cardiomyocyte surface area assessed by WGA staining” value (FIGS. 10B and 10C) is “significantly attenuated”. For the same compound, the “perivascular fibrosis by trichrome staining” value (FIGS. 10D and 10E) was “significantly attenuated”. For the same compound, the “LV/BW ratio (LV hypertrophy)” value (compared to vehicle treatment, cardiac dissection (FIG. 10A)) was “decreased”.

These data come from patent US20230104671A1, “METHODS AND COMPOSITIONS FOR TREATING CARDIOMYOPATHY AND HEART FAILURE” (Ann and Robert H. Lurie Children's Hospital of Chicago, priority 2021, published 2023).
